Data taken from BindingDB's records for doi:10.1021/acs.jmedchem.6b00275 (University of Washington, 2016).

What was measured:
[1] = target: Cytochrome P450 2C19 (Homo sapiens, UniProt P33261); assay: Inhibition of CYP2C19 in human liver microsomes using isoform-specific probe substrates in presence of NADPH-generating system by LC-MS analysis
[2] = target: Cytochrome P450 2C9 (Homo sapiens, UniProt P11712); assay: Inhibition of CYP2C9 in human liver microsomes using isoform-specific probe substrates in presence of NADPH-generating system by LC-MS analysis
Sequence of Cytochrome P450 2C9 (P11712 whole entry, canonical isoform): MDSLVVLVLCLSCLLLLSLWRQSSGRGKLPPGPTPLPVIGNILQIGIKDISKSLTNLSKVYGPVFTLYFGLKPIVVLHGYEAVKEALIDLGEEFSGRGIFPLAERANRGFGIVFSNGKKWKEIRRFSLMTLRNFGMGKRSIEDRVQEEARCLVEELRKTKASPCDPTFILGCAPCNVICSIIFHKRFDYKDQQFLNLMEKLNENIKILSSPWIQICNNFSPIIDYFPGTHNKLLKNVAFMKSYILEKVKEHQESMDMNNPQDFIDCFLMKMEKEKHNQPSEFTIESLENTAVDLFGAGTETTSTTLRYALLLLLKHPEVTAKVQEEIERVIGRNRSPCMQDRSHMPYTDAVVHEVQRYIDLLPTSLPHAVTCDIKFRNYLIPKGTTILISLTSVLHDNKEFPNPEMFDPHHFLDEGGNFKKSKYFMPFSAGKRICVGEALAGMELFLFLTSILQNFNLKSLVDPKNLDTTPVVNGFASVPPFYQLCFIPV

[3] = target: Dihydroorotate dehydrogenase (quinone), mitochondrial (Rattus norvegicus, UniProt Q63707); assay: Inhibition of N-terminal His6-tagged rat DHODH expressed in Escherichia coli BL21 expressed in Escherichia coli BL21 using L-DHO as substrate and CoQ as co-substrate by DCIP dye based spectrophotometric assay
Sequence of Dihydroorotate dehydrogenase (quinone), mitochondrial (Rattus norvegicus, UniProt Q63707) (Q63707 whole entry, canonical isoform): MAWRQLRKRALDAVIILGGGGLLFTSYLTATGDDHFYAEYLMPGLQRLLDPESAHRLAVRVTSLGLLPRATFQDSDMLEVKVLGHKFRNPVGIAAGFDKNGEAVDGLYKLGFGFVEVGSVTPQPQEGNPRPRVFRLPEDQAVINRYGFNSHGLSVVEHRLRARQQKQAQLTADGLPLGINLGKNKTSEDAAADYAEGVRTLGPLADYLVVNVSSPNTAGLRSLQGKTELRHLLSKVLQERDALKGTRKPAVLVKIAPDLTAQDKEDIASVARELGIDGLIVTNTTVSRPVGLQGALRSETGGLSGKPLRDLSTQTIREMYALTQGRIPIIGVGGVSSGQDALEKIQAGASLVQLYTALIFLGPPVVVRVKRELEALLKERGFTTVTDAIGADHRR

[4] = target: T1, Cytochrome P450 1A2 (Homo sapiens, UniProt P05177); assay: Inhibition of CYP1A2 in human liver microsomes using isoform-specific probe substrate in presence of NADPH-generating system by LC-MS analysis
T1 sequence (P05177 whole entry): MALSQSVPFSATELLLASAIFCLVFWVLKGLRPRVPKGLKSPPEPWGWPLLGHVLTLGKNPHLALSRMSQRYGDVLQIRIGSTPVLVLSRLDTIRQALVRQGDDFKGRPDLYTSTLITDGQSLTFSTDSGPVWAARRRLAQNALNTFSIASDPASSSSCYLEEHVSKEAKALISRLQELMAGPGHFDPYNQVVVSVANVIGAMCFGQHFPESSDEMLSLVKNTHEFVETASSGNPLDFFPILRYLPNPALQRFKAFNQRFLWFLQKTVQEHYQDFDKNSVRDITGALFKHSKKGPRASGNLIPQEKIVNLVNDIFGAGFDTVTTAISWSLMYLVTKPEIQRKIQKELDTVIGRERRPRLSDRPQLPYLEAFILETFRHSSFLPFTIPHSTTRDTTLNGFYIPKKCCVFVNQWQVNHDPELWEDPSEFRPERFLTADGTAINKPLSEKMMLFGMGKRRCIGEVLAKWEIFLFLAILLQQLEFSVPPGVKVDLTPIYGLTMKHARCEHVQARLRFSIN

[5] = target: T2, Cytochrome P450 2B6 (Homo sapiens, UniProt P20813); assay: Inhibition of CYP2B6 in human liver microsomes using isoform-specific probe substrates in presence of NADPH-generating system by LC-MS analysis
T2 sequence (P20813 whole entry): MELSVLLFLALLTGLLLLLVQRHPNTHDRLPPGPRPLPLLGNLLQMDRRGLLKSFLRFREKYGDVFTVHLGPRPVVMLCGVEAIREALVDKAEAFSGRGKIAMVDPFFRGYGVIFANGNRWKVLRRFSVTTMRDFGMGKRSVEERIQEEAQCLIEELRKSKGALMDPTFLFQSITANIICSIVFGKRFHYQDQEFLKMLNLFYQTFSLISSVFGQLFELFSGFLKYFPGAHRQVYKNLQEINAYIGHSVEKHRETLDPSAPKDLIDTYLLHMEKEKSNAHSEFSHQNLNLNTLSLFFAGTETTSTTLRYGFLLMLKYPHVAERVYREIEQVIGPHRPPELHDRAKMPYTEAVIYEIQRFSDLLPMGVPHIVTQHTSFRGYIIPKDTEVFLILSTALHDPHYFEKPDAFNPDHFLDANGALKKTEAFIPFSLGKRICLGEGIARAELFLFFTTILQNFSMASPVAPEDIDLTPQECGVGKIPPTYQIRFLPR

[6] = target: T3, Cytochrome P450 2C8 (Homo sapiens, UniProt P10632); assay: Inhibition of CYP2C8 in human liver microsomes using isoform-specific probe substrates in presence of NADPH-generating system by LC-MS analysis
T3 sequence (P10632 whole entry): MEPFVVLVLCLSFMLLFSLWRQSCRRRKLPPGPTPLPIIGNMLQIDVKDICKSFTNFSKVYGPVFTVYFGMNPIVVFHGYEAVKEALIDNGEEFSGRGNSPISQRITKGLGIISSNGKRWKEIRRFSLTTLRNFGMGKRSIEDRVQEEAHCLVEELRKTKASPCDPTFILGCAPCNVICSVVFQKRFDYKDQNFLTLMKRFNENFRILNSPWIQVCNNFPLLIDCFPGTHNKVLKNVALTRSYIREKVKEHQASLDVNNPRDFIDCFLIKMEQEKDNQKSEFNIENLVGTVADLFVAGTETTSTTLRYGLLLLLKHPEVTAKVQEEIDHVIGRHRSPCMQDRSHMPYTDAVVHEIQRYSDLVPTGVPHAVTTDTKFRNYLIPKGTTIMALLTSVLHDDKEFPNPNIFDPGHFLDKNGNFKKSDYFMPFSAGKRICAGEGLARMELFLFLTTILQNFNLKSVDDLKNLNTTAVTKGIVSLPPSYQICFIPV

[7] = target: Cytochrome P450 2D6 (Homo sapiens, UniProt P10635); assay: Inhibition of CYP2D6 in human liver microsomes using isoform-specific probe substrates in presence of NADPH-generating system by LC-MS analysis
Sequence of Cytochrome P450 2D6 (P10635 whole entry, canonical isoform): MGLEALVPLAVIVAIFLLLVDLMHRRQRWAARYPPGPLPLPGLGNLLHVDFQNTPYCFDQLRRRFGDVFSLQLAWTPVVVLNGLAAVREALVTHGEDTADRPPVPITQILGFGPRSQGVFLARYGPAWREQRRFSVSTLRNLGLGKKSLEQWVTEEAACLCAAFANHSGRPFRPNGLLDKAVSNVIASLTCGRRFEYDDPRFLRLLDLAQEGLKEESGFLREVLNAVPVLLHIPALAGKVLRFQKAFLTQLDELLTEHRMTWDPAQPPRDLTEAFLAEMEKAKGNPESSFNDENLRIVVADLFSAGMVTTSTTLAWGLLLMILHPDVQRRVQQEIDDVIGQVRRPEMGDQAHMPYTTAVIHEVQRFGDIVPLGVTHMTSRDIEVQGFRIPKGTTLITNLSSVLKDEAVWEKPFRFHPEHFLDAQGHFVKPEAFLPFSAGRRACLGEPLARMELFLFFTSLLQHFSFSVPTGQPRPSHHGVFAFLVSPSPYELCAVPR

[8] = target: Cytochrome P450 3A4 (Homo sapiens, UniProt P08684); assay: Inhibition of CYP3A4 in human liver microsomes using isoform-specific probe substrates in presence of NADPH-generating system by LC-MS analysis
Sequence of Cytochrome P450 3A4 (P08684 whole entry, canonical isoform): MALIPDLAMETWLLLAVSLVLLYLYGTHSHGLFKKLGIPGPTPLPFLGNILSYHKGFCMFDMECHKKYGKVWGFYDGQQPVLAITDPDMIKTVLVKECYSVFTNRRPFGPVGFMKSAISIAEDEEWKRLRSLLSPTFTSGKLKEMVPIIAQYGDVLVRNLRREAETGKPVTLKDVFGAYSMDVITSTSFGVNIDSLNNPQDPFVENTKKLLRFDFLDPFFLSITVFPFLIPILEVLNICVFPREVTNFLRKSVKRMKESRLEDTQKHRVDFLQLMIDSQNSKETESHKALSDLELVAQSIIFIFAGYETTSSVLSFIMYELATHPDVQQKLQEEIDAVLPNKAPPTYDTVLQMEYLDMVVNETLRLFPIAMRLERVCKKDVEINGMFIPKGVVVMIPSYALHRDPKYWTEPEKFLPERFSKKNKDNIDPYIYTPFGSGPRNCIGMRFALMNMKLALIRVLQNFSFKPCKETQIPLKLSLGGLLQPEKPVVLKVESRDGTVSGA

[9] = target: Dihydroorotate dehydrogenase (quinone), mitochondrial (Homo sapiens, UniProt Q02127); assay: Inhibition of N-terminal His6-tagged human DHODH expressed in Escherichia coli BL21 using L-DHO as substrate and CoQ as co-substrate by DCIP dye based spectrophotometric assay
Sequence of Dihydroorotate dehydrogenase (quinone), mitochondrial (Homo sapiens, UniProt Q02127) (Q02127 whole entry): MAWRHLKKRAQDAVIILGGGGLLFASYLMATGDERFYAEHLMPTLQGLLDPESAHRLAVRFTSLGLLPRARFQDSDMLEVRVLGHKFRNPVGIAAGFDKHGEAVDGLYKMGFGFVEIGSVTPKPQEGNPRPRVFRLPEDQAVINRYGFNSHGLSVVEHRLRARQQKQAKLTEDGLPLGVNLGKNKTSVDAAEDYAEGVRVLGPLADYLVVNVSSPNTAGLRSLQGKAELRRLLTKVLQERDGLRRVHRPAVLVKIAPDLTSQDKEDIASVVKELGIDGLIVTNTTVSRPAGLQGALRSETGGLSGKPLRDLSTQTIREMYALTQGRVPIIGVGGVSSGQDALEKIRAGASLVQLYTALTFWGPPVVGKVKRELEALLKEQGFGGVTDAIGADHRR

Sequence of Cytochrome P450 2C19 (P33261 whole entry, canonical isoform): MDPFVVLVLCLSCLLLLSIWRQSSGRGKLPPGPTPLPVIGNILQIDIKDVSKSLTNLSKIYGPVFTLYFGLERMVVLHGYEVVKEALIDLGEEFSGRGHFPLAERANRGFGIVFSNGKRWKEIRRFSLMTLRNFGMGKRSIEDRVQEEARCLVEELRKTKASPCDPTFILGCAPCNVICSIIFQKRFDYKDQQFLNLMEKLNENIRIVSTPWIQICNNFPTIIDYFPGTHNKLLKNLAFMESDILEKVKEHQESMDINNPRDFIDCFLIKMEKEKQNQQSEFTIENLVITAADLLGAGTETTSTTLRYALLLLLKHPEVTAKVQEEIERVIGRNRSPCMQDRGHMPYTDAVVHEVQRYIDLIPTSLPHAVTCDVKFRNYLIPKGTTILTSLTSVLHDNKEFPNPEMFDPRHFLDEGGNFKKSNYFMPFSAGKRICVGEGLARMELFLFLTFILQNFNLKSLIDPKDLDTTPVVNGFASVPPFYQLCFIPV

| SMILES | IC50 [1] [µM] | IC50 [2] [µM] | IC50 [3] [µM] | IC50 [4] [µM] | IC50 [5] [µM] | IC50 [6] [µM] | IC50 [7] [µM] | IC50 [8] [µM] | IC50 [9] [µM] |
| --- | --- | --- | --- | --- | --- | --- | --- | --- | --- |
| Cc1cc(N[C@H]2CCc3ccc(Br)cc3C2)n2nc(C(C)(F)F)nc2n1 | > 20 | 3.1 | > 100 | > 20 | > 20 | 16.9 | 3.9 | > 20 | – |
| Cc1cc(NC2CCc3cc(Cl)ccc3C2)n2nc(C(C)(F)F)nc2n1 (stereo unspecified) | – | 10.2 | > 100 | > 20 | 18.4 | > 20 | 20 | > 20 | > 100 |
| COc1ccc2c(c1)CC(Nc1cc(C)nc3nc(C(C)(F)F)nn13)CC2 (stereo unspecified) | – | – | – | – | – | – | – | – | > 100 |
| Cc1cc(NC2CCc3ccc(Cl)cc3C2)n2nc(C(F)(F)F)nc2n1 (stereo unspecified) | – | – | – | – | – | – | – | – | > 50 |
| Cc1cc(NC2CCc3cc(Br)ccc3C2)n2nc(C(C)(F)F)nc2n1 (stereo unspecified) | > 20 | 8.7 | > 100 | > 20 | 17.7 | 18.7 | > 20 | – | > 100 |
